Values quoted from earlier work, collected in patent US20020127223A1, “Method for reducing side effects of a drug” (priority 1984, published 2002).

Details: administered 3 hours following methotrexate

Nc1nc(=O)c2c([nH]1)NCC(CNc1ccc(C(=O)N[C@@H](CCC(=O)O)C(=O)O)cc1)N2C=O (mixture of isomers) [folinic acid]
Attenuation of the toxic effects of methotrexate: attenuate the toxic effects of methotrexate
